The subject of data set [1] is Cryptococcus neoformans. Briefly: Antifungal activity against wild type Cryptococcus neoformans H99 assessed as inhibition of fungal growth incubated for 24 to 72 hrs by optical density based analysis. The class given is functional. As to conditions: time 24-72 hrs.
The subject of data set [2] is Cryptococcus neoformans. Briefly: Fungicidal activity against wild type Cryptococcus neoformans H99 assessed as minimum concentration required to kill fungus measured after 24 hrs by time-kill assay. In kind it is functional.
A short description of data set [3]: Cytotoxicity against human A549 cells assessed as cell killing measured after 24 to 48 hrs by MTT assay. In kind it is toxicity, cell-based. Particulars: time 24-48 hrs, read-out: LD50 (the source's name).
Data set [4] is described as follows: Selectivity index, ratio of LD50 for human A549 cells to MIC80 for Cryptococcus neoformans H99. The class given is toxicity. Particulars: read-out: Selectivity Index.
Data set [5] concerns Cryptococcus neoformans. Briefly: Fungicidal activity against wild type Cryptococcus neoformans H99 assessed as minimum concentration required to kill fungus measured after 48 hrs by time-kill assay. The class given is functional.
The subject of a further data set is Aspergillus fumigatus. Briefly: Antifungal activity against Aspergillus fumigatus assessed as inhibition of fungal growth incubated for 24 to 72 hrs by optical density based analysis. The class given is functional. Particulars: time 24-72 hrs.
In data set [6] the test system is Cryptococcus neoformans. Briefly: Fungistatic activity against wild type Cryptococcus neoformans H99 assessed as inhibition of fungal growth incubated for 12 to 48 hrs by time-kill assay. In kind it is functional, organism-based. As to conditions: time 12-48 hrs.
Another data set concerns Candida albicans. Briefly: Antifungal activity against Candida albicans assessed as inhibition of fungal growth incubated for 24 to 72 hrs by optical density based analysis. Particulars: time 24-72 hrs. In kind it is functional.

≈ marks a conversion by molar mass, not a printed value. Calls of active or inactive are those of the source. No cut-off for these calls is given here.

A word on the MIC80: it is an inhibitory concentration at the 80% level, which refers to growth in some studies and to a panel of isolates in others. Turning to `O=C(N/N=C/c1cc(Br)cc(Br)c1O)c1cc(Br)c[nH]1`, the MIC80 with Cryptococcus neoformans [1] was 4 µg/mL (≈ 8.59 µM).
For the molecule `O=C(N/N=C/c1cc(Br)ccc1O)c1cc(Br)c(Br)s1`, the MIC80 in the data set on Cryptococcus neoformans [1] came out at 0.12 µg/mL (≈ 0.248 µM). Moreover, in the data set on Cryptococcus neoformans [2], the MFC100 amounted to 0.25 µg/mL (≈ 0.518 µM). Further, in data set [3], the CC50 was 32 µg/mL (≈ 66.3 µM). Moreover, the selectivity ratio in data set [4] turned out to be 267.
In the case of `O=C(N/N=C/c1c(O)ccc2ccccc12)c1cncc(Br)c1`, the MIC80 with Cryptococcus neoformans [1] was determined as 0.25 µg/mL (≈ 0.675 µM). In addition, the MFC100 in the data set on Cryptococcus neoformans [5] was 2 µg/mL (≈ 5.4 µM). Also, the CC50 in data set [3] amounted to 2 µg/mL (≈ 5.4 µM). The selectivity ratio in data set [4] turned out to be 8.
For the molecule `O=C(N/N=C/c1c(O)ccc2ccccc12)c1cc(Br)c[nH]1`, the MIC80 in the data set on Cryptococcus neoformans [1] was > 16 µg/mL.
As for `C[C@@H]1[C@H](O)[C@@H](C)/C=C/C=C/C=C/C=C/C=C/C=C/C=C/[C@H](O[C@@H]2O[C@H](C)[C@@H](O)[C@H](N)[C@@H]2O)C[C@@H]2O[C@](O)(C[C@@H](O)C[C@@H](O)[C@H](O)CC[C@@H](O)C[C@@H](O)CC(=O)O[C@H]1C)C[C@H](O)[C@H]2C(=O)O` [AMPHOTERICIN B], the MIC80 in the data set with Cryptococcus neoformans [1] amounted to 0.5 µg/mL (≈ 0.541 µM); in the data set with Aspergillus fumigatus, 1 µg/mL (≈ 1.08 µM).
For `O=C(N/N=C/c1c(O)ccc2ccccc12)c1ccco1`, the MIC80 with Cryptococcus neoformans [1] is > 16 µg/mL.
As for `O=C(N/N=C/c1cc(Br)ccc1O)c1ccc(C(F)(F)F)s1`, in the data set with Cryptococcus neoformans [1], the MIC80 came to 0.007 µg/mL (≈ 0.0178 µM). Further, in the data set with Cryptococcus neoformans [2], the MFC100 came to 0.25 µg/mL (≈ 0.636 µM). Moreover, the CC50 in data set [3] worked out at 1 µg/mL (≈ 2.54 µM). Also, the selectivity ratio in data set [4] amounted to 143.
Regarding `O=C(N/N=C/c1c(O)ccc2ccccc12)c1ccc(C(F)(F)F)o1`, in the data set with Cryptococcus neoformans [1], the MIC80 amounted to 0.5 µg/mL (≈ 1.44 µM). The MFC100 in the data set on Cryptococcus neoformans [5] stood at 2 µg/mL (≈ 5.74 µM). Further, in data set [3], the CC50 worked out at 0.12 µg/mL (≈ 0.345 µM). For the same molecule, the selectivity ratio in data set [4] came to 0.24.
As to `O=C(N/N=C/c1cc(Br)cc(Br)c1O)c1ccc(C(F)(F)F)s1`, the MIC80 in the data set on Cryptococcus neoformans [1] stood at 0.06 µg/mL (≈ 0.127 µM). In the data set on Cryptococcus neoformans [5], the MFC100 stood at 0.25 µg/mL (≈ 0.53 µM). In addition, the CC50 in data set [3] worked out at 1 µg/mL (≈ 2.12 µM). The selectivity ratio in data set [4] amounted to 16.6.
Regarding `O=C(N/N=C/c1cc(Br)cc(Br)c1O)c1ccco1`, in the data set on Cryptococcus neoformans [1], the MIC80 came to 8 µg/mL (≈ 20.6 µM).
Regarding `O=C(N/N=C/c1cc(Br)ccc1O)c1csc2ccccc12`, the MIC80 with Cryptococcus neoformans [1] was > 16 µg/mL.
As for `O=C(N/N=C/c1cc(Br)ccc1O)c1cccs1`, in the data set with Cryptococcus neoformans [1], the MIC80 was determined as 8 µg/mL (≈ 24.6 µM).
The same measure, in the same setting: with `Cc1ccc2c(C)c(C(=O)N/N=C/c3cc(Br)cc(Br)c3O)oc2c1` the figure was > 16 µg/mL; with `O=C(N/N=C/c1cc(Br)cc(Br)c1O)c1cncc(Br)c1`, > 16 µg/mL.
Turning to `O=C(N/N=C/c1c(O)ccc2ccccc12)c1ccc(Br)o1`, in the data set on Cryptococcus neoformans [1], the MIC80 worked out at 0.12 µg/mL (≈ 0.334 µM). Further, the MFC100 in the data set on Cryptococcus neoformans [5] was 1 µg/mL (≈ 2.78 µM). Besides, the CC50 in data set [3] was 32 µg/mL (≈ 89.1 µM). Also, the selectivity ratio in data set [4] worked out at 267.
Take `O=C(N/N=C/c1cc(Br)cc(Br)c1O)c1cc(Br)co1`: in the data set with Cryptococcus neoformans [1], the MIC80 was 0.06 µg/mL (≈ 0.129 µM). Also, the result with Cryptococcus neoformans [6] was Active. For the same molecule, in data set [3], the CC50 was determined as 16 µg/mL (≈ 34.3 µM). The selectivity ratio in data set [4] was determined as 267.
With `O=C(N/N=C/c1cc(Br)cc(Br)c1O)c1ccc[nH]1`, the MIC80 in the data set with Cryptococcus neoformans [1] worked out at 2 µg/mL (≈ 5.17 µM).
Consider `O=C(N/N=C/c1c(O)ccc2ccccc12)c1cc[nH]n1`, for which the MIC80 in the data set with Cryptococcus neoformans [1] was 4 µg/mL (≈ 14.3 µM).
Regarding `O=C(N/N=C/c1cc(Br)cc(Br)c1O)c1ncc[nH]1`, in the data set with Cryptococcus neoformans [1], the MIC80 was 2 µg/mL (≈ 5.15 µM).
Consider `O=C(N/N=C/c1ccc(Br)cc1O)c1ccc(C(F)(F)F)s1`, for which the MIC80 in the data set with Cryptococcus neoformans [1] came to 0.06 µg/mL (≈ 0.153 µM). Moreover, the MFC100 in the data set on Cryptococcus neoformans [2] was found to be 0.5 µg/mL (≈ 1.27 µM). Further, the CC50 in data set [3] was determined as 0.5 µg/mL (≈ 1.27 µM). The selectivity ratio in data set [4] amounted to 8.3.
For the molecule `O=C(N/N=C/c1c(O)ccc2ccccc12)c1ccc(C(F)(F)F)s1`, the MIC80 in the data set on Cryptococcus neoformans [1] was 0.007 µg/mL (≈ 0.0192 µM). Further, the MFC100 with Cryptococcus neoformans [2] amounted to 0.25 µg/mL (≈ 0.686 µM). The CC50 in data set [3] turned out to be 0.12 µg/mL (≈ 0.329 µM). In addition, the selectivity ratio in data set [4] turned out to be 17.1.
In the case of `O=C(N/N=C/c1cc(Br)ccc1O)c1ccco1`, the MIC80 in the data set with Cryptococcus neoformans [1] came out at 2 µg/mL (≈ 6.47 µM).
With `O=C(N/N=C/c1cc(Br)cc(Br)c1O)c1ncc(Br)cn1`, in the data set on Cryptococcus neoformans [1], the MIC80 was 0.25 µg/mL (≈ 0.522 µM). Moreover, in the data set on Cryptococcus neoformans [6], the outcome was Active.
For `O=C(N/N=C/c1cc(Br)ccc1O)c1cncc(Br)c1`, in the data set with Cryptococcus neoformans [1], the MIC80 was 1 µg/mL (≈ 2.51 µM). Besides, in the data set on Cryptococcus neoformans [6], the result was Active. Also, in data set [3], the CC50 came out at 4 µg/mL (≈ 10 µM). Moreover, the selectivity ratio in data set [4] is 4.
With `O=C(N/N=C/c1ccc(Br)cc1O)c1ccc[nH]1`, in the data set on Cryptococcus neoformans [1], the MIC80 is 2 µg/mL (≈ 6.49 µM).
Take `O=C(N/N=C/c1cc(Br)ccc1O)c1cc[nH]n1`: the MIC80 with Cryptococcus neoformans [1] was found to be 4 µg/mL (≈ 12.9 µM).
For the molecule `O=C(N/N=C/c1ccc(Br)cc1O)c1cc[nH]c1`, the MIC80 in the data set on Cryptococcus neoformans [1] was found to be 4 µg/mL (≈ 13 µM).
Consider `CC[C@H](C)C[C@H](C)CCCCCCCCC(=O)N[C@H]1C[C@@H](O)[C@@H](NCCN)NC(=O)[C@@H]2[C@@H](O)CCN2C(=O)[C@H]([C@H](O)CCN)NC(=O)[C@H]([C@H](O)[C@@H](O)c2ccc(O)cc2)NC(=O)[C@@H]2C[C@@H](O)CN2C(=O)[C@H]([C@@H](C)O)NC1=O` [CASPOFUNGIN], for which the MIC80 with Cryptococcus neoformans [1] was > 32 µg/mL; in the data set on Candida albicans it was 0.5 µg/mL (≈ 0.457 µM).
Turning to `O=C(N/N=C/c1cc(Br)ccc1O)c1ccc[nH]1`, the MIC80 in the data set with Cryptococcus neoformans [1] is 16 µg/mL (≈ 51.9 µM).
For `O=C(N/N=C/c1c(O)ccc2ccccc12)c1cc(Br)co1`, in the data set with Cryptococcus neoformans [1], the MIC80 is > 16 µg/mL.
The same measure, in the same setting: next, `O=C(N/N=C/c1cc(Br)ccc1O)c1cc2cc(Br)ccc2o1`: > 16 µg/mL.
As to `O=C(N/N=C/c1cc(Br)cc(Br)c1O)c1ccc(Br)o1`, the MIC80 in the data set on Cryptococcus neoformans [1] is 0.06 µg/mL (≈ 0.129 µM). Besides, the outcome in the data set on Cryptococcus neoformans [6] was Active. Moreover, the CC50 in data set [3] is 16 µg/mL (≈ 34.3 µM). In addition, the selectivity ratio in data set [4] was determined as 267.
Take `O=C(N/N=C/c1cc(Br)ccc1O)c1ncc(Br)cn1`: the MIC80 in the data set with Cryptococcus neoformans [1] is > 16 µg/mL.

The values are drawn from ChEMBL document CHEMBL5523691, “SAR study of N'-(Salicylidene)heteroarenecarbohydrazides as promising antifungal agents” (Bioorg Med Chem, 2024).
